Experimental data from patent publication US6605754B1, “DNA constructs and plants incorporating them” (priority 1992, dated 2003).

Assays:
[1] = tested on: alcA:35S chimeric promoter (CAT reporter gene expression); assay: CAT expression from wild type A nidulans alcA-CAT transformants GA2-1 and GA2-5; assay type: cell-based, Aspergillus nidulans
Procedure: Conidial suspensions of A nidulans were grown in supplemented minimal medium containing 0.1% fructose as the carbon source, for 20 hours at 200 revs/min in an orbital incubator at 37° C. Inducing chemical was added to the mycelia at 20 hours and allowed to grow for a further 4 hours. The mycelia was harvested as before. Uninduced mycelia was allowed to grow for 24 hours in the medium described above.
300 mgs of mycelia, frozen in liquid nitrogen, was ground in a chilled pestle and mortar with an equal amount of acid washed sand for 20 seconds. 1 ml of extraction buffer, (0.1 M Tris pH 7.5), was added and the mycelia ground for a further 30 seconds. Another 1 ml of extraction buffer was added and the mycelia was ground again for 30 seconds. 1 ml of the ground mycelia mixture was transferred into eppendorfs and centrifuged at 13,000 revs/min for 5 minutes in a microcentrifuge. The supernatant was transferred to new eppendorfs and the protein concentration estimated using the Bradford's assay.
Stably transformed A nidulans was obtained by co-transforming a pyrG89 strain with the pDJB3 and palcA-CAT/pUC plasmids using the PEG method. Plasmid palcA-CAT/pUC contains the CAT reporter gene between the alcA:35S chimeric promoter and the nos transcription terminator. Two independent transformants (GA2-1 and GA2-5) were obtained which contained uninterrupted copies of the alcA-CAT construct. This was shown by probing genomic DNA, restricted with HindIII, with the 0.7 kb SalI fragment of the CAT gene.
The CAT activity of the alcA-CAT A nidulans transformants was measured when they were grown under a variety of conditions. FIG. 4 is a graph showing CAT expression from the GA2-1 and GA2-5 transformants (wild type with alcA-CAT construct) growing in 0.1% fructose (F) or 1% glucose (G) in the absence or presence of 50 mM ethyl methyl ketone as inducer (I). […] The induction of CAT was prevented when the transformants were grown in 1% glucose even in the presence of inducer indicating the carbon catabolyte repression function of the alcA promoter was retained.
FIG. 5 is a graph showing the effect of cyclohexanone concentration (mM) on CAT expression in the transformant GA2-1 growing in 0.1% fructose (F) or 1% glucose (G).

[2] = tested on: alc expression cassette 35S-alcR/alcA-CAT (CAT reporter gene expression); assay: CAT activity in leaves of stably transformed tobacco after leaf paint with inducer; assay type: in vivo
Procedure: Cyclohexanone was applied to the plant leaves as a paint. The cyclohexanone paint consisted of a 10% solution of 950 g/L cyclohexanone, 35 g/L syperonic NDE 1800, 16.5 g/L Tween 85 in thickener. Both surfaces of the leaf were applied with paint at 100 μl solution per 16-25 cm^2 of leaf surface, on days 0 and 2. Leaf tissue was harvested prior to inducer application and at appropriate times after the second application of paint. 1 cm^2 of leaf tissue was removed with a sterile scalpel, put in an eppendorf, and immersed in liquid nitrogen. CAT assays were undertaken within 4 hours of leaf sampling.
The leaf tissue was allowed to defrost at room temperature for several minutes after storage in liquid nitrogen. A sterile micropestle was used to grind the leaf tissue in the eppendorf for 30 seconds and then 100 μl of 100 mM Tris pH 7.8 was added. The plant mixture was then vortexed for 20 seconds and centrifuged at 13,000 revs/min for 5 minutes. The supernatant was transferred to a new eppendorf. 50 μl of leaf extract was used for a CAT assay and the rest was used to determine the protein concentration wit the Bradford's method.
CAT assays were undertaken according to the Dupont method as described in Example 4.
The data obtained from this analysis are shown in FIG. 9: at each time point, results are given in the order S34:D3:T1. Leaves were treated with cyclohexanone leaf paint on day 0 and day 2. Samples of leaf tissue were taken immediately prior to each treatment (0-0 and 2-0 in FIG. 9) and thereafter at seven intervals up until day 3. Protein extracts were made from the leaf samples and CAT activity determined in the samples using the diffusion assay described above.
The leaves of the plants were painted with a 10% iso-propanol solution at 0 and 60 minutes and the CAT expression of leaf samples was measured at 240 minutes. The CAT expression found in the alcA-CAT and alcA-CAT/35S-alcR transgenic plants at 0 minutes was low as it was in the control untransformed tobacco plants.

[3] = tested on: ADHI expressed from the alcA gene; conditions: Creaser et al 1984 / shown previously; cited from earlier work

Which “CAT activity of the alcA-CAT reporter construct” value ([1]; GA2-1 and GA2-5, 0.1% fructose, 50 mM inducer) does the source give for `CCC(C)=O` [EMK, butan-2-one (ethyl methyl ketone)] here?
The value was “high”.

And the “induction of CAT” value ([1]; GA2-1 and GA2-5, 1% glucose, 50 mM inducer)?
The value was “prevented”.

Which results are given for `O=C1CCCCC1` [cyclohexanone]?
effect on CAT activity [2]: no effect; CAT expression level after application to leaves ([2]; plant D3 (35S-alcR/alcA-CAT), cyclohexanone leaf paint): high CAT expression level; time of peak CAT activity after the second inducing treatment ([2]; plant D3, leaf paint on day 0 and day 2): 160 min; CAT activity as % of the maximum activity seen in the 35S-alcR/alcA-CAT leaves ([2]; plants T1 and S34 after cyclohexanone leaf paint): 5-20%; inducer strength for alcA / ADHI [3]: potent inducer; concentration of optimal inducing ability (concentration curve) ([1]; GA2-1 transformant): 25 mM; induction of CAT expression ([1]; GA2-1 transformant): found to induce CAT expression

For `CC(C)O` [iso-propanol, propan-2-ol], which “increase in CAT activity” value ([2]; 10% solution painted at 0 and 60 minutes, measured at 240 minutes, alcA-CAT, alcA-CAT/35S-alcR and control plants) is on record?
The value was “no significant increase”.

What about the “effect on the alc expression cassette” value ([2]; tobacco plants) of the same compound?
The value was “no apparent effect”.

And the “inducer strength for alcA / ADHI” value [3]?
Its value is “weak inducer”.
